The source of these data is patent publication US20250066348A1, “SMALL MOLECULE INHIBITORS OF UBIQUITIN SPECIFIC PROTEASE 1 (USP1) AND USES THEREOF” (INSILICO MEDICINE IP LIMITED, priority 2021, published 2025).

One test deals with MDA-MB-436 cells. In words: MDA-MB-436 breast cancer cell proliferation assay (CellTiter-Glo). Type of test: cell-based. To be noted: Homo sapiens, 168 h, 7 days. As for the experimental part: MDA-MB-436 cells were grown in Leibovitz's L-15 medium with 10 μg/ml insulin, 16 μg/ml glutathione, 10% FBS. Cells were passaged at subconfluence after trypsinization and maintained in incubators at 37° C. in a humidified atmosphere with 5% CO2.
Cell proliferation was determined using CellTiter-Glo® Luminescent Cell Viability Assay (Promega, #G7573). MDA-MB-436 cells were seeded in 384-well plates and allowed to attach for 24 h. Compounds were added into 384-well plate by ECHO, and incubated at 37 C° in a humidified atmosphere with 5% CO2. After 7 days, CellTiter-Glo was added into 384 well plates, contents were mixed on an orbital shaker at […] for 2 min before centrifuging the plate for 2 min at 1000 rpm. After incubation at RT for 30 min, luminescence was read on envision.
(Cellular ATP, detected with luciferase, serves as a proxy for viable cell number.)

Test [1] concerns the target T1, Human recombinant USP1/UAF1 (Homo sapiens, UniProt O94782).
T1 construct: purchased R&D E-568-050; host or cells: baculovirus infected Sf21 cells
In words: Enzymatic assay, USP1/UAF1 with Ubiquitin Rhodamine 110. Type of test: biochemical. Conditions: 2 nM USP1/UAF1, 500 nM Ubiquitin Rhodamine 110, HEPES buffer pH 8.0, 15 minutes preincubation at RT. As for the experimental part:
Human recombinant USP1/UAF1 expressed in baculovirus infected Sf21 cells were used (R&D, E-568-050). Test compound and/or vehicle was incubated with 2 nM of USP1/UAF1 in modified HEPES buffer pH 8.0 for 15 minutes at RT. The reaction was initiated by addition of 500 nM of Ubiquitin Rhodamine 110 (R&D, U-555-050) for kinetic reading. Slope change of fluorescence intensity was read spectrofluorimetrically at 485 nm/535 nm. Dose response of test compounds or reference compound ML-323 was analyzed by nonlinear regression of GraphPad prism software.

T1 sequence (O94782 whole entry): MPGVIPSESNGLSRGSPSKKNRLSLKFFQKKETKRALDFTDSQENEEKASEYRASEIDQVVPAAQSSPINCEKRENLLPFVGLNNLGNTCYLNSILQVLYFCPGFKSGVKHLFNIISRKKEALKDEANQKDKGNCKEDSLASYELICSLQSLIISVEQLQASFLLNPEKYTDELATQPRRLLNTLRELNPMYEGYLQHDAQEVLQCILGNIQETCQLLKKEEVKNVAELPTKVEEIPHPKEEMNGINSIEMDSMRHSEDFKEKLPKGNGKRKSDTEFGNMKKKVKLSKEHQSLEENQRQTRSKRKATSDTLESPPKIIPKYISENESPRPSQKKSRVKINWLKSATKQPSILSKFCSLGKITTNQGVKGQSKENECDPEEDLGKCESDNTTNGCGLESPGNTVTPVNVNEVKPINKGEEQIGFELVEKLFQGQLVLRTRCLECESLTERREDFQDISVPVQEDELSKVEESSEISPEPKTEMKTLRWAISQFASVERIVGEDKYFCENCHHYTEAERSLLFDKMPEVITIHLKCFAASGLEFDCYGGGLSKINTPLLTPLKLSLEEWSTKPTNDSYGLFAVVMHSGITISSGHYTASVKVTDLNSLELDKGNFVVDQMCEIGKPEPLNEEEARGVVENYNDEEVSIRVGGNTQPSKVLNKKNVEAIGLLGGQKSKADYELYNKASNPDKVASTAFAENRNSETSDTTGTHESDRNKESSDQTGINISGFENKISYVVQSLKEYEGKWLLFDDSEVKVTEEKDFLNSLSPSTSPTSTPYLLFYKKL
T1 sequence (Q8TAF3 whole entry partner): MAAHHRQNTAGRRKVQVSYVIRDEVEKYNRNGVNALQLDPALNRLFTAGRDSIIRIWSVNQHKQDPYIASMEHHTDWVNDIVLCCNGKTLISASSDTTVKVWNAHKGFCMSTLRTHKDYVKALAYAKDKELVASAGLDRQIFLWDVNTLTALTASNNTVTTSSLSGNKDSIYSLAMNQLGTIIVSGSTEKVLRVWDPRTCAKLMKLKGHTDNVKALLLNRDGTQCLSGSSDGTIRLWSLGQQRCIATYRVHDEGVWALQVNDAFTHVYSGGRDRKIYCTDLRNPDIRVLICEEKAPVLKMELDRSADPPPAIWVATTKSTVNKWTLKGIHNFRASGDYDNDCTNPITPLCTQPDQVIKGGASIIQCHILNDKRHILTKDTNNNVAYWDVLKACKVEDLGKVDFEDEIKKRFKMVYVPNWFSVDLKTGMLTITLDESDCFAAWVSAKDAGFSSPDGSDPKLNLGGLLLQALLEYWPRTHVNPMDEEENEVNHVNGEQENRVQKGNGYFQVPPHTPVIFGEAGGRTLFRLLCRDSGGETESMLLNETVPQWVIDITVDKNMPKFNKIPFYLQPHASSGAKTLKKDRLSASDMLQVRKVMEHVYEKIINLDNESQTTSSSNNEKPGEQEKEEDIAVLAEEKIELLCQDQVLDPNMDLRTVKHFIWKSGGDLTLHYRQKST

`COc1ncnc(C2CC2)c1-c1cc2c(cn1)cnn2Cc1ccc(-n2nc(C(F)(F)F)cc2C)cc1` [Example 1, 6-(4-cyclopropyl-6-methoxypyrimidin-5-yl)-1-(4-(5-methyl-3-(trifluoromethyl)-1H-pyrazol-1-yl)benzyl)-1H-pyrazolo[4,3-c]pyridine]: the IC50 is 50 to 1000 nM in the test on MDA-MB-436 cells and less than 50 nM in test [1].

On to `COc1ncnc(C2CC2)c1-c1cn2c(Cc3ccc(-n4nc(C(F)(F)F)cc4C)cc3)ncc2cn1` [Example 2, 6-(4-cyclopropyl-6-methoxypyrimidin-5-yl)-3-(4-(5-methyl-3-(trifluoromethyl)-1H-pyrazol-1-yl)benzyl) imidazo[1,5-a]pyrazine], for which the IC50 (in the test with MDA-MB-436 cells; in test [1]) was 50 to 1000 nM each time. Take `COc1ncnc(C2CC2)c1-c1cnc2cnn(Cc3ccc(-n4nc(C(F)(F)F)cc4C)cc3)c2n1` [Example 3, 6-(4-cyclopropyl-6-methoxypyrimidin-5-yl)-1-(4-(5-methyl-3-(trifluoromethyl)-1H-pyrazol-1-yl)benzyl)-1H-pyrazolo[3,4-b]pyrazine]: the IC50 (in the test with MDA-MB-436 cells; in test [1]) was 1000 to 10000 nM throughout. For the compound `COc1ncnc(C2CC2)c1-c1cc2c(cnn2Cc2ccc(-n3nc(C(F)(F)F)cc3C)cc2)nn1` [Example 4, 6-(4-cyclopropyl-6-methoxypyrimidin-5-yl)-1-(4-(5-methyl-3-(trifluoromethyl)-1H-pyrazol-1-yl)benzyl)-1H-pyrazolo[4,3-c]pyridazine], the IC50 in test [1] is 1000 to 10000 nM. As for `COc1ncnc(C2CC2)c1-c1cn2c(Cc3ccc(-n4nc(C(F)(F)F)cc4C)cc3)nnc2cn1` [Example 5, 6-(4-cyclopropyl-6-methoxypyrimidin-5-yl)-3-(4-(5-methyl-3-(trifluoromethyl)-1H-pyrazol-1-yl)benzyl)-[1,2,4]triazolo[4,3-a]pyrazine], the figures for the IC50 (with MDA-MB-436 cells; in test [1]) were more than 10000 nM and 1000 to 10000 nM, respectively. Take `COc1ncnc(C2CC2)c1-c1cnc2cnc(Cc3ccc(-n4nc(C(F)(F)F)cc4C)cc3)n2c1` [Example 6, 3-(4-cyclopropyl-6-methoxypyrimidin-5-yl)-6-(4-(5-methyl-3-(trifluoromethyl)-1H-pyrazol-1-yl)benzyl)imidazo[1,5-a]pyrimidine]: in test [1], the IC50 was more than 10000 nM.

For `COc1ncnc(C2CC2)c1-c1ncc2c(=O)n(C)n(Cc3ccc(-n4nc(C(F)(F)F)cc4C)cc3)c2n1` [Example 7, 6-(4-cyclopropyl-6-methoxypyrimidin-5-yl)-2-methyl-1-(4-(5-methyl-3-(trifluoromethyl)-1H-pyrazol-1-yl)benzyl)-1,2-dihydro-3H-pyrazolo[3,4-d]pyrimidin-3-one], the IC50 (in the test on MDA-MB-436 cells; in test [1]) was 50 to 1000 nM each time. On to `COc1ncnc(C2CC2)c1-c1ncc2oc(=O)n(Cc3ccc(-n4nc(C(F)(F)F)cc4C)cc3)c2n1` [Example 8, 5-(4-cyclopropyl-6-methoxypyrimidin-5-yl)-3-(4-(5-methyl-3-(trifluoromethyl)-1H-pyrazol-1-yl)benzyl) oxazolo[4,5-d]pyrimidin-2 (3H)-one], for which the IC50 (in the test with MDA-MB-436 cells; in test [1]) was 50 to 1000 nM in each case.

For `COc1ncnc(C2CC2)c1-c1ncc2[nH]c(=S)n(Cc3ccc(-n4nc(C(F)(F)F)cc4C)cc3)c2n1` [Example 9, 2-(4-cyclopropyl-6-methoxypyrimidin-5-yl)-9-(4-(5-methyl-3-(trifluoromethyl)-1H-pyrazol-1-yl)benzyl)-7,9-dihydro-8H-purine-8-thione], the IC50 (in the test on MDA-MB-436 cells; in test [1]) was 50 to 1000 nM in each case.

Take `COc1ncnc(C2CC2)c1-c1ncc2cnn(CC34C5C6C3C3C4C5C63c3nc(C(F)(F)F)cn3C)c2n1` (stereo not drawn) [Example 10, 6-(4-cyclopropyl-6-methoxypyrimidin-5-yl)-1-((4-(1-methyl-4-(trifluoromethyl)-1H-imidazol-2-yl)cuban-1-yl)methyl)-1H-pyrazolo[3,4-d]pyrimidine]: the IC50 (in the test with MDA-MB-436 cells; in test [1]) was less than 50 nM in each case. For the compound `COc1ncnc(C2CC2)c1-c1ncc2cnn(CC34C5C6C3C3C4C5C63c3nc(C(F)(F)F)cn3C(C)C)c2n1` (stereo not drawn) [Example 11, 6-(4-cyclopropyl-6-methoxypyrimidin-5-yl)-1-((4-(1-isopropyl-4-(trifluoromethyl)-1H-imidazol-2-yl)cuban-1-yl)methyl)-1H-pyrazolo[3,4-d]pyrimidine], the IC50 (in the test on MDA-MB-436 cells; in test [1]) was less than 50 nM in each case. Turning to `COc1ncnc(C2CC2)c1-c1cc2c(cn1)cnn2Cc1ccc(-n2nc(C(F)(F)F)cc2C)nc1` [Example 12, 6-(4-cyclopropyl-6-methoxypyrimidin-5-yl)-1-((6-(5-methyl-3-(trifluoromethyl)-1H-pyrazol-1-yl)pyridin-3-yl)methyl)-1H-pyrazolo[4,3-c]pyridine], in test [1], the 50% inhibitory concentration (IC50) lay within 50 to 1000 nM.

The term IC50 denotes the concentration at which inhibition is half-maximal.
